# Source: publication PMC7297381, “Potent, specific MEPicides for treatment of zoonotic staphylococci” (PLoS Pathogens, 2020)
# Read-outs that look alike come from different tables or passages of the source.
# B1: S. schleiferi DXR enzyme (Staphylococcus schleiferi) (protein)
# chain: MKNIAILGASGSIGQQAIDVIARHPESFNLISFTVGKNIEFAIEVIEKFKPEIVSVQDEADVERLKPYHSNIVSGRQGLIDVSTYEKNDLVLNALLGSVGLEPTMKAIEAGKNIALANKETLVVAGKLVMTHAKRYGVDILPVDSEHAAIFQCLNGEDMHKIKNVTITASGGSFRELTREQLEHVTVGDALNHPNWSMGNKITIDSATMMNKGFEVIEAKWLFDLKIDQIKTILHKESIIHSLVEFVDTSVMAQLGTPDMRMPIQYAFTYPERIEHRAPSLDLVQVAQLHFQEMDLDRYRCLKFAYDALRIGGSMPVVLNAVNEVAVAKFLNHEITFLEIEHMIEREMSAHEVIPDPSLEEILEIDHYYKTKSYEV
# Key:
# [1] = biological target: S. schleiferi DXR enzyme (Staphylococcus schleiferi, UniProt A0ABF7SXB4); test: S. schleiferi DXR enzyme activity and inhibition (NADPH oxidation at 340 nm); type: biochemical; conditions: for inhibition of purified recombinant S. schleiferi DXR in vitro: prodrug, uncleaved
# Method: (§1) . The sequence was confirmed by Sanger sequencing and the plasmid was transformed into E. coli BL21(DE3) pLysS (Life Technologies). Gene expression was induced for 2 h with 1 mM isopropyl-β-D-thiogalactoside (IPTG) and cells were harvested by centrifugation at 4274 x g for 10 min at 4°C. The cell pellet was lysed by sonication in lysis buffer containing 25 mM Tris HCl (pH 7.5), 100 mM NaCl, 20 mM imidazole, 10% glycerol, 1 mM MgCl2, 1 mM dithiothreitol (DTT), 1 mg/mL lysozyme, 75 U benzonase and 1 Complete Mini EDTA-free protease inhibitor tablet (Roche Applied Science). The hexahistidine-tagged DXR protein was affinity purified from soluble lysate via nickel agarose beads (Gold Biotechnology). Bound protein was eluted in 300 mM imidazole, 25 mM Tris HCl (pH 7.5), 1 mM MgCl2 and 100 mM NaCl. Purified protein was dialyzed in buffer containing 10% glycerol without imidazole prior to analysis. The enzyme was frozen in liquid nitrogen and stored permanently at -80°C.
# Oxidation of NADPH to NADP^+ as a result of substrate turnover was monitored at 340 nm in a POLARstar Omega microplate reader (BMG Labtech)[73]. […] Reactions were initiated by the addition of DOXP after 15 min incubation of the reaction mixture without DOXP at 37°C. Absorption at 340 nm was measured continuously for up to 45 min. For Km [DOXP] determination, DOXP concentrations between 0 and 2 mM were tested at 0.5 mM NADPH. The linear range of enzyme activity was determined by varying the DXR concentration at 1 mM DOXP and 1 mM NADPH. IC50 assays were performed using the standard reaction conditions with the respective amount of DXR inhibitor added to obtain the given final concentrations. Data points from at least three independent replicates were analyzed by nonlinear regression using GraphPad Prism software. Slopes of changing absorbance values were converted to (μM DOXP)(mg enzyme)^-1 s ^-1 using a NADPH standard curve (data not shown). For the determination of the inhibitory constant Ki [FSM] of DXR, enzyme activity over a range of DOXP substrate concentrations between 0 and 2 mM was measured for FSM between 0 mM to 4 mM. Data points from at least three independent replicates were analyzed as described above.
# [2] = tested on: S. pseudintermedius; test: Growth inhibition assay of Staphylococcus species (OD600, 20 h); conditions: read-out: S. pseudintermedius IC50
# Method: (§2) Overnight cultures were diluted 1:200 in LB media and grown at 37°C until the mid-logarithmic phase (OD600 = 0.5–0.8). Cultures were diluted in a 96-well plate to 1 x 10^5 in 150 μL LB media and treated with inhibitors at concentrations ranging from 2 nM to 100 μM. Bacteria were grown at 37°C for 20 h with cyclic shaking at 700 rpm in a FLUOstar Omega microplate reader (BMG Labtech). Growth was assessed over 20 h by measuring the OD600 at 20 min increments. The half-maximal inhibitory concentration (IC50) values were determined during logarithmic growth using GraphPad Prism software. All experiments were performed at least in triplicate and data reported represent the mean ± SEM.
# [3] = tested on: S. aureus; test: as above; conditions: for IC50: Staphylococcus aureus, read-out: S. aureus IC50
# Method: as §2
# [4] = tested on: S. schleiferi; test: as above; conditions: read-out: S. schleiferi IC50
# Method: as §2
# [5] = tested on: Shigella sonnei; test: microbe, parasite or virus in culture; type: cell-based; conditions: mean ± SD
# [6] = tested on: Serratia marcescens; test: Growth inhibition assay for Gram-negative bacteria; type: cell-based; conditions: strain 137.01, mean ± SD
# [7] = tested on: Escherichia coli; test: microbe, parasite or virus in culture; type: cell-based; conditions: for IC50: Escherichia coli, BW25113, mean ± SD
# [8] = tested on: Burkholderia thailandensis; test: microbe, parasite or virus in culture; type: cell-based; conditions: read-out: Burkholderia thailandensis IC50
# [9] = tested on: Salmonella typhimurium; test: Growth inhibition assay for Gram-negative bacteria; type: cell-based; conditions: Salmonella enterica, strain 04-018-0254, mean ± SD
# [10] = tested on: S. schleiferi; test: MIC by microtiter broth dilution, wild-type and FSM-resistant strains; conditions: for sensitivity of FSM^R glpT mutant S. schleiferi strains (MIC fold change vs WT): strains 3408, 4494, 7376, 8400
# Method: (§3) Minimum Inhibitory Concentration (MIC) assays were conducted by microtiter broth dilution in clear 96-well plates[78]. MEPicides were serially diluted in duplicate at concentrations ranging from 1.5 mM– 19.5 nM in 75 μL of LB broth. Bacteria cultured without drug were used as a positive control for growth. The plates were inoculated with 75 μL bacteria diluted to 1 x 10^5 CFU/mL in LB. Plates were incubated for 18–20 h while shaking at 200 RPM at 37°C. The plates were then visually inspected, and the MIC value was defined as the lowest concentration of MEPicide that prevented visual growth.
# [11] = tested on: HepG2 cells; design: method as in PMID 28827774, PMID 30192536; conditions: previous work ref [42], [53]; read-out: IC50 against HepG2 cells; cited from earlier work
# [12] = tested on: Klebsiella pneumoniae; test: Growth inhibition assay for Gram-negative bacteria; type: cell-based; conditions: for IC50: Klebsiella pneumoniae, ATCC43816, ATCC 43816, mean ± SD
# [13] = tested on: S. pseudintermedius; test: Minimum bactericidal (MBC) assay, CFU after 24 h; conditions: 1 x and 10 x IC50, 24 h, CFU/mL
# Method: (§4) Overnight cultures were diluted 1:200 in LB media and grown at 37°C until reaching mid-logarithmic phase of growth. […] Cultures were serially diluted in 1 X Dulbecco’s Phosphate Buffered Saline (PBS; Gibco) and plated on LB agar. Colonies were enumerated after overnight growth at 37°C. Values reflect the mean and standard deviations of at least three independent experiments.
# (§5) Growth in CFU/mL of S. schleiferi and S. pseudintermedius after 24 h treatment is plotted against the respective treatment. Cultures were treated at 1 x IC50 concentration and/or 10x IC50 concentration of the inhibitors. Shown are the mean values + SD from at least three independent experiments.
# [14] = tested on: S. schleiferi; test: Minimum bactericidal (MBC) assay, CFU after 24 h; conditions: 1 x and 10 x IC50, 24 h, CFU/mL
# Method: as §4, §5
# [15] = tested on: MEP pathway; test: Targeted LC-MS/MS profiling of MEP pathway intermediates; conditions: FSM at 10x IC50, 2 h, vs untreated
# Method: (§6) MEP pathway metabolites were compared between untreated (UNT) S. schleiferi (A) and S. pseudintermedius (B) and bacteria treated with FSM at 10x the respective IC50 values. After 2 h treatment, bacterial cells were harvested and the cell pellets analyzed by LC-MS/MS. […] P-values were determined using a Student’s t-test.
# (§7) Overnight cultures of Staphylococcus spp. were diluted 1:200 in LB media and grown at 37°C until reaching mid-logarithmic phase. Cultures were then treated for 2 h with FSM at 10x their IC50 while shaking at 37°C. For normalization, the OD600 was determined after 2 h of treatment with the DXR inhibitors. Cells were pelleted by centrifugation for 5 min at 3000 x g at 4°C. The supernatants were removed and cells were washed twice with 1 x PBS (Gibco). The supernatants were removed and the pellets stored at -80°C until analysis. MEP intermediates were extracted from the samples using glass beads (212–300 u) and 600 μL chilled H2O: chloroform: methanol (3:5:12 v/v) spiked with PIPES (piperazine-N,N′-bis(2-ethanesulfonic acid) as internal standard. The cells were disrupted with the TissueLyser II instrument (Qiagen) using a microcentrifuge tube adaptor set pre-chilled for 2 min at 20 Hz. The samples were then centrifuged at 16,000 x g at 4°C for 10 min, the supernatants collected, and pellet extraction repeated once more. The supernatants were pooled and 300 μL chloroform and 450 μL of chilled water were added to the supernatants. The tubes were vortexed and centrifuged. The upper layer was transferred to a 2 mL tube PVDF filter (ThermoFisher, F2520-5) and centrifuged for 5 min at 4,000 x g at 4°C. The samples were transferred to new tubes and dried using a speed-vac. […]
# (§8) For LC separation, Luna-NH2 column (3 μm, 150 x 2 mm, Phenomenex) was used flowing at 0.4 mL/min. […] The metabolites were detected using MRM transitions that were previously optimized using standards. […] For quantification, an external standard curve was prepared using a series of standard samples containing different concentrations of metabolites and a fixed concentration of the internal standard. […]
# [16] = tested on: S. pseudintermedius; test: MIC by microtiter broth dilution, wild-type and FSM-resistant strains
# Method: as §3
# [17] = tested on: MEP pathway; test: Targeted LC-MS/MS profiling of MEP pathway intermediates; conditions: FSM at 10x IC50, 2 h, vs untreated; remark: listed apart in the source
# Method: as §6, §7, §8
# [18] = substrate: CC(=O)[C@@H](O)[C@H](O)COP(=O)(O)O; test: S. schleiferi DXR enzyme activity and inhibition (NADPH oxidation at 340 nm); type: biochemical; conditions: other: 0.5 mM NADPH; pH 7.5; 37.0 °C
# Method: as §1, with “Bound protein was eluted in 300 mM imidazole, 25 mM Tris HCl (pH 7.5), 1 mM MgCl2 and 100 mM NaCl. Purified protein was dialyzed in buffer containing 10% glycerol without imidazole prior to analysis. The enzyme was frozen in liquid nitrogen and stored permanently at -80°C.” left out
# Oxidation of NADPH to NADP^+ as a result of substrate turnover was monitored at 340 nm in a POLARstar Omega microplate reader (BMG Labtech)[73]. […] Absorption at 340 nm was measured continuously for up to 45 min. […] The linear range of enzyme activity was determined by varying the DXR concentration at 1 mM DOXP and 1 mM NADPH. […] Data points from at least three independent replicates were analyzed by nonlinear regression using GraphPad Prism software. Slopes of changing absorbance values were converted to (μM DOXP)(mg enzyme)^-1 s ^-1 using a NADPH standard curve (data not shown). […] Data points from at least three independent replicates were analyzed as described above.
# [19] = purified recombinant enzyme, mean ± SEM, read-out: S. schleiferi DXR enzyme IC50
molecule,measurement,setting,value
CC(=O)N(O)C/C=C/P(=O)(O)O [Compound 1],IC50,[1],3.31 ± 1.02 µM
same,IC50,[2],54.5 ± 1.14 µM
same,IC50,[3],> 100 µM
same,IC50,[4],55.5 ± 2.41 µM
CC(=O)N(O)C/C=C/P(=O)(OCOC(=O)C(C)(C)C)OCOC(=O)C(C)(C)C [Compound 2],IC50,[5],> 100 µM
same,IC50,[6],> 100 µM
same,inhibition of growth of E. coli,[7],does not inhibit growth
same,IC50,[7],> 1000 µM
same,inhibition of purified recombinant S. schleiferi DXR in vitro,[1],poorly inhibit
same,IC50,[1]; [19],> 100 µM
same,IC50,[8],> 100 µM
same,IC50,[2],0.26 ± 0.03 µM
same,IC50,[9],> 100 µM
same,IC50,[3],> 100 µM
same,IC50,[4],0.1 ± 0.01 µM
same,sensitivity of FSM^R glpT mutant S. schleiferi strains (MIC fold change vs WT),[10],remain sensitive
same,IC50,[11],> 100 µM
same,inhibition of growth of Klebsiella pneumoniae,[12],does not inhibit growth
same,IC50,[12],> 100 µM
O=CN(O)C/C=C/P(=O)(O)O [Compound 3],IC50,[1],0.41 ± 0.11 µM
same,IC50,[2],4.31 ± 0.51 µM
same,IC50,[3],> 100 µM
same,IC50,[4],4.17 ± 0.47 µM
same,sensitivity of FSM^R glpT mutant S. schleiferi strains (MIC fold change vs WT),[10],cross-resistant
same,IC50,[11],> 50 µM
CC(C)(C)C(=O)OCOP(=O)(/C=C/CN(O)C=O)OCOC(=O)C(C)(C)C [Compound 4],inhibition of purified recombinant S. schleiferi DXR in vitro,[1],poorly inhibit
same,IC50,[1]; [19],12.6 ± 1.98 µM
same,IC50,[2],0.21 ± 0.04 µM
same,IC50,[3],> 90 µM
same,IC50,[4],0.03 µM
same,sensitivity of FSM^R glpT mutant S. schleiferi strains (MIC fold change vs WT),[10],remain sensitive
same,IC50,[11],> 50 µM
CC(=O)N(O)CCCP(=O)(O)O [FR-900098],IC50,[1],1 ± 0.18 µM
same,mechanism-of-action on viable cells,[13],bacteriostatic
same,IC50,[2],34.1 ± 6.54 µM
same,inhibition of S. aureus growth,[3],neither FSM nor FR-900098 inhibit S. aureus growth
same,IC50,[3],> 100 µM
same,IC50,[4],41.1 ± 6.65 µM
same,mechanism-of-action on viable cells,[14],bacteriostatic
"O=CN(O)CCCP(=O)(O)O [FSM, fosmidomycin]",IC50,[5],1.16 ± 0.69 µM
same,IC50,[6],0.39 ± 0.02 µM
same,IC50,[7],0.29 ± 0.08 µM
same,Ki,[1]; competitive with respect to the DOXP substrate,0.29 ± 0.022 µM
same,IC50,[1]; [19],0.67 ± 0.06 µM
same,mode of DXR inhibition,[1]; with respect to the DOXP substrate,competitive
same,increase of intracellular DOXP level,[15],34.8 fold
same,reduction of intracellular CDP-ME level,[15],2.6 fold
same,reduction of intracellular MEcPP level,[15],2.4 fold
same,mechanism-of-action on viable cells,[13],bacteriostatic
same,IC50,[8],> 100 µM
same,IC50,[2],0.31 ± 0.04 µM
same,MIC,"[16]; read-out: FSM MIC, Parental S. pseudintermedius",25.9 µM
same,MIC,"[16]; read-out: FSM MIC, strain SPSE0643, GlpT W301X",1120 µM
same,MIC,"[16]; read-out: FSM MIC, strain SPSE1933, GlpT G99E",875 µM
same,MIC,"[16]; read-out: FSM MIC, strain SPSE2052, GlpT D88Y",1120 µM
same,MIC,"[16]; read-out: FSM MIC, strain SPSE2227, GlpT G135D",1120 µM
same,MIC,"[16]; read-out: FSM MIC, strain SPSE2648, GlpT G99E",1000 µM
same,MIC,"[16]; read-out: FSM MIC, strain SPSE5869, GlpT G135V",938 µM
same,MIC,"[16]; read-out: FSM MIC, strain SPSE6794, GlpT G99E",1250 µM
same,MIC,"[16]; read-out: FSM MIC, strain SPSE6909, GlpT G404D",688 µM
same,MIC,"[16]; read-out: FSM MIC, strain SPSE7104, GlpT G99E",1250 µM
same,MIC,"[16]; read-out: FSM MIC, strain SPSE7724, GlpT G400C",1120 µM
same,MIC,"[16]; read-out: FSM MIC, strain SPSE8628, no GlpT change",1060 µM
same,MIC,"[16]; read-out: FSM MIC, strain SPSE9765, no GlpT change",1250 µM
same,IC50,[9],0.23 ± 0.03 µM
same,increase of intracellular DOXP level,[17],23.8 fold
same,reduction of intracellular CDP-ME level,[17],5.5 fold
same,reduction of intracellular MEcPP level,[17],4.5 fold
same,inhibition of S. aureus growth,[3],neither FSM nor FR-900098 inhibit S. aureus growth
same,IC50,[3],> 100 µM
same,IC50,[4],0.78 ± 0.13 µM
same,mechanism-of-action on viable cells,[14],bacteriostatic
same,MIC,"[10]; read-out: FSM MIC, Parental S. schleiferi",19.8 µM
same,MIC,"[10]; read-out: FSM MIC, strain SSCH1903, GlpT G99X",719 µM
same,MIC,"[10]; read-out: FSM MIC, strain SSCH3408, GlpT A267E",500 µM
same,MIC,"[10]; read-out: FSM MIC, strain SSCH3612, GlpT G99V",688 µM
same,MIC,"[10]; read-out: FSM MIC, strain SSCH3624 (second line), GlpT A309S",562 µM
same,MIC,"[10]; read-out: FSM MIC, strain SSCH3624, GlpT G99V",688 µM
same,MIC,"[10]; read-out: FSM MIC, strain SSCH3717, no GlpT change",> 1500 µM
same,MIC,"[10]; read-out: FSM MIC, strain SSCH4455, GlpT G298X",> 1500 µM
same,MIC,"[10]; read-out: FSM MIC, strain SSCH4494, GlpT G99X",750 µM
same,MIC,"[10]; read-out: FSM MIC, strain SSCH7376, GlpT W148C",438 µM
same,MIC,"[10]; read-out: FSM MIC, strain SSCH8400, GlpT W161L",469 µM
same,MIC,"[10]; read-out: FSM MIC, strain SSCH8586, GlpT G99E",> 1500 µM
same,MIC,"[10]; read-out: FSM MIC, strain SSCH8774, GlpT Q379P",> 1500 µM
same,IC50,[12],0.81 ± 0.56 µM
B1,Km,[18],520 ± 80 µM
